Data on twelve compounds can be found in patent US8101773B2, “Hydroxy methyl phenyl pyrazolyl urea compounds useful in the treatment of cancer” (Bayer Healthcare LLC, priority 2006, dated 2012).

Substitutions are numbered along the chain they refer to. pIC50: −log10 of the molar value. Where a name gives a salt, the structure may show the parent alone.

Assay [1] has as its system Bcr-Abl kinase. The settings on record: greater potency than Imatinib; cited from earlier work.
Assay [2] deals with Imatinib-resistant Bcr-Abl mutations. Particulars: cited from earlier work.
Assay [3] concerns Bcr-Abl E255K mutant. Particulars: cited from earlier work.
Assay [4] has as its target T1, mutant Bcr-Abl-T3151 kinase (Homo sapiens, UniProt P00519, T315I).
T1 sequence (P00519 242-493 T315I limits assumed): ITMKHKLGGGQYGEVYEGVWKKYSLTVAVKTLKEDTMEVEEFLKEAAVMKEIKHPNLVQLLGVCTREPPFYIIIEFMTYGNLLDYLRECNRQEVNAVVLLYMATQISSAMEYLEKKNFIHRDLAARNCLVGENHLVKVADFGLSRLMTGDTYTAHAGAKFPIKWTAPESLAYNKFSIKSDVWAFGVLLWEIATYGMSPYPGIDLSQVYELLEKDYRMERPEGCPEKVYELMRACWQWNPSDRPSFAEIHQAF
Nature of the assay: Bcr-Abl mutant T315I biochemical assay (MBP phosphorylation, 33P-ATP). Particulars: 50 μM ATP. As for the experimental part: (§1) Bcr-Abl Wild Type and Mutant T315I Biochemical Assay
(§2) Bcr-Abl-wt or mutant Bcr-Abl-T3151 kinase (0.17 nM) was incubated with Myelin Basic Protein (MBP, 2 μM) in assay buffer consisting of 50 mM Tris pH 7.5, 10 mM MgCl2, 1 mM EGTA, 2 mM DTT, 50 μM ATP and 0.4 μCi of ^33P-ATP. Test compounds were added at varying concentrations (final DMSO conc=1%) prior to the addition of ATP. The reaction mixture was incubated for 1 hour at 32° C. The reaction was then stopped by addition of phosphoric acid (final conc=1%) and samples were transferred to filtermats and read in a betaplate reader. Inhibition of MBP phosphorylation by Bcr-Abl-wt or Bcr-Abl-T3151 was analyzed by using a 4 parameter fit and in-house software.

Assay [5] has as its target T2, human recombinant c-Met intracellular kinase domain (Homo sapiens, UniProt P08581).
T2 construct: C-terminal HIS-tagged intracellular kinase domain (956 to 1390 amino acids) human recombinant c-Met; His tag (C)
Nature of the assay: c-Met biochemical assay, ELISA format. The settings on record: 0.2 μM ATP. As for the experimental part:
An ELISA format was used for the c-Met biochemical assay. This assay uses the C-terminal HIS-tagged intracellular kinase domain (956 to 1390 amino acids) human recombinant c-Met in 96-well plates. 96-Well plates (Costar #9018) coated with poly(GluTyr) (Sigma # P0275) were used in this assay. The poly(GluTyr) substrate coated on the plate was phosphorylated in a 100 μL reaction volume with 2 nM c-Met protein in an assay buffer (50 mM HEPES pH7.0, 5 mM MnCl2, 0.1% BSA, 0.5 mM sodium orthovanadate, 0.1% β-mercaptoethanol), with 0.2 μM ATP (Sigma #A7699). […] After 25 minutes of incubation, the assay reaction was stopped with 25 μL of 100 mM EDTA. The plates were then washed, and wells were treated with 100 μL of 80 ng/mL anti-4G10-HRP antibody (Upstate #16-105) for 1 h. Plates were washed one final time, and were developed with 100 μL 3,3′,5,5′-TMB (Sigma #T8665), and quenched with 100 μL 1M HCl. Plates were read on a Victor 2 plate reader (Perkin Elmer) and IC50 analysis and calculation were performed using in-house software.
(In general: ELISA stands for enzyme-linked immunosorbent assay.)

Assay [6] concerns the target T3, Flk-1 (murine VEGFR-2) kinase domain (Mus musculus, UniProt P35918).
T3 construct: 7 nM Flk-1 (kinase domain)
In words: Flk-1 (murine VEGFR-2) biochemical assay, TR-FRET. The settings on record: 10 μM ATP. How it is done:
Flk-1 (Murine VEGFR-2) Biochemical Assay
This assay was performed in 96-well opaque plates (Costar 3915) in the TR-FRET format. Reaction conditions were as follows: 10 μM ATP, 25 nM poly GT-biotin, 2 nM Eu-labelled phospho-Tyr Ab (PY20 Perkin Elmer), 10 nM APC (Perkin Elmer), 7 nM Flk-1 (kinase domain), 1% DMSO, 50 mM HEPES pH 7.5, 10 mM MgCl2, 0.1 mM EDTA, 0.015% BRIJ, 0.1 mg/mL BSA, 0.1% mercapto-ethanol). Reaction was initiated upon addition of enzyme. Final reaction volume in each well was 100 μL. Plates were read at both 615 and […] on a Perkin Elmer Victor V Multilabel counter at about 1.5-2.0 hours after reaction initiation. Signal was calculated as a ratio: (665 nm/615 nm)*10000 for each well.
Background: In TR-FRET formats the signal depends on donor and acceptor labels being close together.

Assay [7] has as its target T4, Bcr-Abl-wt kinase (Homo sapiens, UniProt P00519).
T4 sequence (P00519 242-493 limits assumed): T1 sequence (P00519 242-493 T315I limits assumed) with I74T
In words: Bcr-Abl wild type biochemical assay (MBP phosphorylation, 33P-ATP). The settings on record: 50 μM ATP. How it is done:
as §1, §2

A short description of assay [8]: In vitro tumor cell proliferation assay (Cell Titre-Glo), cell lines of interest. The settings on record: 72 hours, Cell Titer Glo; read-out: antiproliferative properties (IC50) in one or more cell lines of interest. Type of assay: cell-based. The source says: In vitro Tumor Cell Proliferation Assay
On the technique in general: In ATP-based viability assays light output follows the ATP content of the culture.

Assay [9] has as its system early phase CML. The settings on record: patients with early phase CML; cited from earlier work.

T3 sequence (P35918 832-1160 limits assumed): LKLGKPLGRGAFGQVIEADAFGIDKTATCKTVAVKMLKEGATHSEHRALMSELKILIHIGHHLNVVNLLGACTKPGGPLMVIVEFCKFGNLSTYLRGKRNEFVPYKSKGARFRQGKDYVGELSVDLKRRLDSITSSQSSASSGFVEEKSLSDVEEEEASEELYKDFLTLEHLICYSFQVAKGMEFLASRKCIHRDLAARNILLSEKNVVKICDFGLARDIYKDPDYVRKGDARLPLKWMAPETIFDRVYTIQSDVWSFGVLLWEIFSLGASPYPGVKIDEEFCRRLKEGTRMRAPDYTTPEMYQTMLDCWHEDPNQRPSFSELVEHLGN
T2 sequence (P08581 956-1390): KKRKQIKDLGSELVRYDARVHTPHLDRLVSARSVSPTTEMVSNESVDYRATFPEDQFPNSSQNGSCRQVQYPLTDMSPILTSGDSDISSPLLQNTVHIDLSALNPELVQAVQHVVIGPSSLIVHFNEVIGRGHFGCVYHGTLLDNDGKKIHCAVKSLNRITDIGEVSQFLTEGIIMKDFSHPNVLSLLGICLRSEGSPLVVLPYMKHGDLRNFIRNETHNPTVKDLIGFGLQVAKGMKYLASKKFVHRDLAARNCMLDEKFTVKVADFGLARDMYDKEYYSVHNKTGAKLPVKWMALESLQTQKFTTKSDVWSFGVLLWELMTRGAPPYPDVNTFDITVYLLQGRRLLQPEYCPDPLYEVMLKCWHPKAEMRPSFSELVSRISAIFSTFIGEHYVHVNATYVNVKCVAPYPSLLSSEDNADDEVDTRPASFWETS

For `Cc1cn(-c2cc(NC(=O)c3ccc(C)c(Nc4nccc(-c5cccnc5)n4)c3)cc(C(F)(F)F)c2)cn1` [AMN-107, nilotinib], the “potency of inhibition of Bcr-Abl kinase activity relative to Imatinib” value in [1] was 20 fold. The “inhibition of Imatinib-resistant Bcr-Abl mutations” value in assay [2] was “inhibit most Imatinib-resistant Bcr-Abl mutations, except for T315I”. The “inhibition of E255K mutant in a biochemical assay” value in [3] is recorded as “somewhat weak inhibition”.

For the compound `CNC(=O)c1cc(Oc2ccc(NC(=O)Nc3cc(C(C)(C)C)nn3-c3cccc(COC(=O)[C@H](NC(=O)OCC4c5ccccc5-c5ccccc54)C(C)C)c3)c(F)c2)ccn1` [Example 8, 3-(3-tert-Butyl-5-{[(2-fluoro-4-{[2-(methylcarbamoyl)pyridin-4-yl]oxy}phenyl)carbamoyl]amino}-1H-pyrazol-1-yl)benzyl-N-[(9H-fluoren-9-ylmethoxy)carbonyl]D valinate], the pIC50 in [4] and in assay [5] was greater than 4.70 each time.

As to `CNC(=O)c1cc(Oc2ccc(NC(=O)Nc3cc(C(C)(C)C)nn3-c3cccc(COC(=O)[C@H](N)C(C)C)c3)c(F)c2)ccn1` [Example 9, 3-(3-tert-Butyl-5-{[(2-fluoro-4-{[2-(methylcarbamoyl)pyridin-4-yl]oxy}phenyl)-carbamoyl]amino}-1H-pyrazol-1-yl)benzyl D-valinate], the pIC50 (usually the IC50 on a negative log10 scale, so that one unit is a factor of ten) in assay [4] is greater than 6.00; in assay [5], greater than 6.00; in assay [6], greater than 6.00; in assay [7], greater than 6.00; in [8], greater than 5.30.

With `CNC(=O)c1cc(Oc2ccc(NC(=O)Nc3cc(C(C)(C)C)nn3-c3cccc(COC(=O)[C@@H](N)C(C)C)c3)c(F)c2)ccn1` [Example 10, 3-(3-tert-Butyl-5-{[(2-fluoro-4-{[2-(methylcarbamoyl)pyridin-4-yl]oxy}-phenyl)carbamoyl]amino}-1H-pyrazol-1-yl)benzyl L-valinate], the negative-log IC50 (pIC50) in assay [4], in [5], in assay [6] and in assay [7] was greater than 6.00 throughout.

In the case of `CNC(=O)c1cc(Oc2ccc(NC(=O)Nc3cc(C(C)(C)C)nn3-c3cccc(COC(C)=O)c3)c(F)c2)ccn1` [Example 11, 3-(3-tert-Butyl-5-{[(2-fluoro-4-{[2-(methylcarbamoyl)pyridin-4-yl]oxy}-phenyl)carbamoyl]amino}-1H-pyrazol-1-yl)benzyl acetate], the pIC50 is greater than 6.00 in [4]; greater than 6.00 in assay [5]; greater than 6.00 in [6]; greater than 6.00 in assay [7]; greater than 5.30 in [8].

As to `CNC(=O)c1cc(Oc2ccc(NC(=O)Nc3cc(C(C)(C)C)nn3-c3cccc(COP(=O)(OC(C)(C)C)OC(C)(C)C)c3)c(F)c2)ccn1` [Example 12, Di-tert-butyl 3-(3-tert-butyl-5-{[(2-fluoro-4-{[2-(methylcarbamoyl)pyridin-4-yl]oxy}phenyl)carbamoyl]amino}-1H-pyrazol-1-yl)benzyl phosphate], the pIC50 is greater than 4.70 in assay [4], greater than 4.70 in [5] and greater than 5.30 in assay [8].

In the case of `CNC(=O)c1cc(Oc2ccc(NC(=O)Nc3cc(C(C)(C)C)nn3-c3cccc(COP(=O)(O)O)c3)c(F)c2)ccn1` [Example 13, 3-(3-tert-Butyl-5-{[(2-fluoro-4-{[2-(methylcarbamoyl)pyridin-4-yl]oxy}-phenyl)carbamoyl]amino}-1H-pyrazol-1-yl)benzyl dihydrogen phosphate dihydrochloride], the pIC50 in assay [8] was greater than 5.30.

Take `CNC(=O)c1cc(Oc2ccc(NC(=O)Nc3cc(C(C)(C)C)nn3-c3cccc(COC(=O)CCC(=O)O)c3)c(F)c2)ccn1` [Example 14, 4-{[3-(3-tert-Butyl-5-{[(2-fluoro-4-{[2-(methylcarbamoyl)pyridin-4-yl]oxy}-phenyl)carbamoyl]amino}-1H-pyrazol-1-yl)benzyl]oxy}-4-oxobutanoic acid]: the pIC50 is greater than 6.00 in [4]; greater than 6.00 in assay [5]; greater than 6.00 in [6]; greater than 6.00 in assay [7]; greater than 5.30 in assay [8].

For `CNC(=O)c1cc(Oc2ccc(NC(=O)Nc3cc(C(C)(C)C)nn3-c3cccc(COC(=O)COC)c3)c(F)c2)ccn1` [Example 15, 3-(3-tert-Butyl-5-{[(2-fluoro-4-{[2-(methylcarbamoyl)pyridin-4-yl]oxy}phenyl)carbamoyl]amino}-1H-pyrazol-1-yl)benzyl methoxyacetate], the negative-log IC50 (pIC50) in assay [4], in assay [5], in assay [6] and in assay [7] was greater than 6.00 throughout.

Take `CCC(=O)OCc1cccc(-n2nc(C(C)(C)C)cc2NC(=O)Nc2ccc(Oc3ccnc(C(=O)NC)c3)cc2F)c1` [Example 16, 3-(3-tert-butyl-5-{[(2-fluoro-4-{[2-(methylcarbamoyl)pyridin-4-yl]oxy}phenyl)carbamoyl]amino}-1H-pyrazol-1-yl)benzyl propionate]: the negative logarithm of the IC50 (pIC50) in assay [4], in [5], in assay [6] and in assay [7] was greater than 6.00 in each case.

For `CNC(=O)c1cc(Oc2ccc(NC(=O)Nc3cc(C(C)(C)C)nn3-c3cccc(COC(=O)CC(C)C)c3)c(F)c2)ccn1` [Example 17, 3-(3-tert-Butyl-5-{[(2-fluoro-4-{[2-(methylcarbamoyl)pyridin-4-yl]oxy}phenyl)carbamoyl]amino}-1H-pyrazol-1-yl)benzyl 3-methylbutanoate], the pIC50 in assay [4] and in assay [5] was greater than 4.70 in each case.

Take `Cc1ccc(NC(=O)c2ccc(CN3CCN(C)CC3)cc2)cc1Nc1nccc(-c2cccnc2)n1` [Imatinib]: in assay [9], the “degree of response at both haematological and cytogenetic levels” value is on record as “greater than 90%”.
